Data published in patent US20060205677A1 (XenoPort, Inc., priority 2005, published 2006).

Legend:
HT29 cells [1] = assay: In vitro cytotoxicity (Alamar blue growth inhibition), HT29; format: cell-based, human; conditions: HT29, 48 h
Protocol: (§1) The effect of experimental compounds on cancer cell growth and viability was measured in a panel of human cancer cells grown in vitro. All cancer cell lines were obtained from the American […]. Cells were maintained in the following media: TUR, H69AR, Calu-6, ME180, and PC3 cells were grown in RPMI medium containing 4.5 g/L glucose, 10% FBS, 4 mM L-glutamine, and 1 mM sodium pyruvate); and HT29 cells were grown in DMEM with 4.5 g/L glucose, 10% FBS, and 6 mM L-glutamine. All cells were grown at 37° C. in 5% CO2 and passaged bi-weekly.
(§2) For cytoxicity studies, cells were seeded into 96-well clear-bottom microtiter plates at the following densities: TUR (7,500 cells/well), HT29 (5,000 cells/well), H69AR (10,000 cells/well), Calu-6 (15,000 cells/well), and ME180 (2,500 cells/well). Cells were maintained at 37° C. with 5% CO2 for 24 hours prior to addition of various experimental compounds. Each condition was measured in triplicate. For compounds dissolved in DMSO, the final DMSO concentration in each well and in the non-drug treated control cells was constant and below 1% in all studies. The number of viable cells was determined after 24, 48, and 72 hours using Alamar blue fluorescence. Briefly, Alamar blue (10 mM) was added to each well for 4 hours, and the number of viable cells estimated by measuring the fluorescence of reduced Alamar blue (530 nm excitation, 590 nm emission). To correct for background fluorescence, cells were treated with 100% DMSO to eliminate all viable cells. The effect of drug on cell growth was determined by calculating the fraction of live cells treated with drug compared to untreated cells: (F1drug treated−F1DMSO killed)/(F1untreated−F1DMSO killed).

HT29 cells [2] = assay: Effect of sugar transport inhibitor (phloridzen) on in vitro cytotoxicity; format: cell-based, human; conditions: 48 hours
Protocol: as §1, §2

TUR cells = assay: In vitro cytotoxicity (Alamar blue growth inhibition), TUR; format: cell-based, human; conditions: 48 h
Protocol: as §1, §2

Calu-6 cells = assay: In vitro cytotoxicity (Alamar blue growth inhibition), Calu-6; format: cell-based, human; conditions: Calu-6, 48 h
Protocol: as §1, §2

PC3 cells = assay: In vitro cytotoxicity (Alamar blue growth inhibition), PC3; format: cell-based, human; conditions: PC3, 48 h
Protocol: as §1, §2

ME180 cells = assay: In vitro cytotoxicity (Alamar blue growth inhibition), ME180; format: cell-based, human; conditions: ME180, 48 h
Protocol: as §1, §2

H69AR cells = assay: In vitro cytotoxicity (Alamar blue growth inhibition), H69AR; format: cell-based, human; conditions: 48 h
Protocol: as §1, §2

HT29 (Colon) xenograft = assay: In vivo tumor growth inhibition, mouse xenograft, HT29; set-up: species or system nude athymic CD-1 mice; conditions: IP
Protocol: (§3) Tumor xenograft studies were performed using nude athymic CD-1 mice (Charles River Laboratories). Human cancer cells (5×10^6 PC3, 5×10^6 HT29, 10^7 Calu-6, and 5×10^6 ME180) were implanted in the hind flank of nude mice. Tumor growth was measured using calipers and tumor volume calculated using the formula: (width^2×(length/2)). Tumor volume was measured 3 days per week. Animal weight was measured 3 days per week to assess compound toxicity.
(§4) Compounds were tested for in vivo tumor growth inhibition as follows. Animals bearing tumors 100-200 mg were sorted into groups (5-8 animals) with similar average tumor mass per group. Drug doses were administered by intraperitoneal (IP) injection (0.5 mL). Test compounds were dissolved in phosphate buffered saline (PBS) and concentration adjusted for animal weight. Actual drug concentrations in formulated doses were verified by quantitative nitrogen detection. Animals were dosed every 7 days for 21 days in most studies. In several studies, animals were dosed twice weekly (days 0, 4, 7, 10, 14, etc.). Tumor volume and animal weight were measured on days 0, 2, 4, 7, 9, 11, 14, 16, 18, 21, 23, 25, and 28. At the end of the study, animal blood was removed for analysis of liver and kidney function (BUN, creatine, AST and ALT; analytical measurements performed by Quality Clinical Labs). Tumor volume at the end of the study was calculated as a percentage of the tumor volume on day 0. The percent tumor growth inhibition was obtained from the ratio of the percentage tumor volume increase in drug treated animals to the percentage tumor volume increase in saline treated animals.

[3] = Determination of maximum tolerated dose (MTD); format: in vivo, nude mice; conditions: ratio of maximum tolerated dose to minimally effective dose
Protocol: To determine the maximum tolerated doses for compound (54) relative to clinically used platinum anticancer agents, nude mice were injected with increasing drug doses (0.5 mL, intraperitoneally) on days 0, 7, and 14. […] The therapeutic index of a given drug is defined as the ratio of the maximum tolerated dose to the minimally effective dose.

Calu-6 (Lung) xenograft = assay: In vivo tumor growth inhibition, mouse xenograft, Calu-6; set-up: species or system nude athymic CD-1 mice; conditions: 100 mg/kg, IP
Protocol: as §3, §4

[4] = test system: ME180 (Cervical) xenograft; assay: In vivo tumor growth inhibition, mouse xenograft, ME180; set-up: species or system nude athymic CD-1 mice; conditions: 100 mg/kg, IP
Protocol: as §3, §4

PC3 (Prostate) xenograft = assay: In vivo tumor growth inhibition, mouse xenograft, PC3; set-up: species or system nude athymic CD-1 mice; conditions: 80 mg/kg (2/week), IP
Protocol: as §3
as §4, with “At the end of the study, animal blood was removed for analysis of liver and kidney function (BUN, creatine, AST and ALT; analytical measurements performed by Quality Clinical Labs).” left out, “The percent tumor growth inhibition was obtained from the ratio of the percentage tumor volume increase in drug treated animals to the percentage tumor volume increase in saline treated animals.” left out

## N.N.[Cl][Pt][Cl] [Cisplatin, reference compound]
HT29 cells [1]
  GI50: 30 µM
HT29 cells [2]; HT29, 0 mM phloridzen, read-out: GI50 of Uptake in HT29 Cells, 0 mM Phoridzen
  GI50: 261 µM
HT29 cells [2]; HT29, 0.2 mM phloridzen, read-out: GI50 of Uptake in HT29 Cells, 0.2 mM Phoridzen
  GI50: 194 µM
HT29 cells [2]; HT29, 0.5 mM phloridzen, read-out: GI50 of Uptake in HT29 Cells, 0.5 mM Phoridzen
  GI50: 192 µM
HT29 cells [2]; HT29, 1.0 mM phloridzen, read-out: GI50 of Uptake in HT29 Cells, 1.0 mM Phoridzen
  GI50: 254 µM
TUR cells
  GI50: 10 µM
Calu-6 cells
  GI50: 149 µM
PC3 cells
  GI50: 31 µM
ME180 cells
  GI50: 1 µM
H69AR cells
  GI50: 4 µM
HT29 (Colon) xenograft; 2 mg/kg
  Percent Tumor Growth Inhibition HT29 (Colon): 69%

## O=C1[O][Pt]2([NH]C3CCCCC3[NH]2)[O]C(=O)C1CCC1OC(CO)C(O)C(O)C1O (stereo not shown) [(93)]
HT29 cells [1]
  GI50: 178 µM
TUR cells
  GI50: 20 µM
Calu-6 cells
  GI50: 139 µM
PC3 cells
  GI50: 69 µM
ME180 cells
  GI50: 7 µM
H69AR cells
  GI50: 78 µM

## N.N.O=C(CCCC1C(=O)[O][Pt][O]C1=O)NC1C(O)OC(CO)C(O)C1O [(82), [Diammine][{3-(α,β-D-Glucopyranos-2-yl-amido)propyl}propanedioato(2-)-O,O′]Platinum (II)]
HT29 cells [1]
  GI50: 800 µM
TUR cells
  GI50: 142 µM
Calu-6 cells
  GI50: 300 µM
PC3 cells
  GI50: 133 µM
ME180 cells
  GI50: 11 µM
H69AR cells
  GI50: 112 µM

## O=C(CCCC1C(=O)[O][Pt]2([NH]C3CCCCC3[NH]2)[O]C1=O)NCC1OC(O)C(O)C(O)C1O [(66), [1R,2R-Cyclohexanediamine-N,N′][{3-(α,β-D-Glucopyranos-6-ylamido)propyl}propanedioato(2-)-O,O′]Platinum (II)]
HT29 cells [1]
  GI50: 222 µM
TUR cells
  GI50: 15 µM
Calu-6 cells
  GI50: 163 µM
ME180 cells
  GI50: 7 µM
H69AR cells
  GI50: 102 µM

## O=C1[O][Pt]2([NH][C@@H]3CCCC[C@H]3[NH]2)[O]C1=O [Oxaliplatin, oxaliplatin, reference compound]
HT29 cells [1]
  GI50: 133 µM
TUR cells
  GI50: 42 µM
[3]
  Therapeutic Index MTD/Min Eff: 2.0
Calu-6 cells
  GI50: 52 µM
PC3 cells
  GI50: 113 µM
ME180 cells
  GI50: 28 µM
H69AR cells
  GI50: 60 µM
HT29 (Colon) xenograft; 5 mg/kg
  Percent Tumor Growth Inhibition HT29 (Colon): 40%

## N.N.O=C([O-])C1(C(=O)[O-])CCC1.[Pt+2] [Carboplatin, reference compound]
Calu-6 (Lung) xenograft
  Percent Tumor Growth Inhibition Calu-6 (Lung): 56%
HT29 cells [1]
  GI50: 515 µM
TUR cells
  GI50: 123 µM
[3]
  Therapeutic Index MTD/Min Eff: 2.3
Calu-6 cells
  GI50: 712 µM
PC3 cells
  GI50: 290 µM
ME180 cells
  GI50: 64 µM
H69AR cells
  GI50: 94 µM
[4]
  Percent Tumor Growth Inhibition ME180 (Cervical): 25%
HT29 (Colon) xenograft; 100 mg/kg
  Percent Tumor Growth Inhibition HT29 (Colon): 47%

## N.N.O=C(CCCC1C(=O)[O][Pt][O]C1=O)NCC1OC(O)C(O)C(O)C1O [(60), [Diammine][{3-(α,β-D-Galactopyranos-6-ylamido)propyl}propanedioato(2-)-O,O′]Platinum (II)]
TUR cells
  GI50: 117 µM
H69AR cells
  GI50: 79 µM

## NC1CCCCC1N.O=C1[O][Pt][O]C(=O)C1CCC1OC(CO)C(O)C(O)C1O [(88), [1R,2R-Cyclohexanediamine-N,N′][{2-(α,β-D-Glucopyranos-1-yl)ethyl}propanedioato(2-)-O,O′]Platinum (II)]
HT29 cells [1]
  GI50: 226 µM
TUR cells
  GI50: 31 µM
Calu-6 cells
  GI50: 260 µM
PC3 cells
  GI50: 112 µM
ME180 cells
  GI50: 13 µM
H69AR cells
  GI50: 98 µM

## O=C(CCCC1C(=O)[O][Pt]2([NH]C3CCCCC3[NH]2)[O]C1=O)NC1OC(CO)C(O)C(O)C1O [(51), [1R,2R-Cyclohexanediamine-N,N′][{3-(β-D-Galactopyranos-1-ylamido)propyl}propanedioato(2-)-O,O′]Platinum (II)]
HT29 cells [1]
  GI50: 374 µM
TUR cells
  GI50: 37 µM
Calu-6 cells
  GI50: 255 µM
PC3 cells
  GI50: 84 µM
ME180 cells
  GI50: 5 µM
H69AR cells
  GI50: 286 µM

## O=C1[O][Pt]2([NH]C3CCCCC3[NH]2)[O]C(=O)C1CCNC(=O)C1OC(O)C(O)C(O)C1O [(74), [1R,2R-Cyclohexanediamine-N,N′][{2-(α,β-D-Glucuron-6-yl-amido)ethyl}propanedioato(2-)-O,O′]Platinum (II)]
TUR cells
  GI50: 53 µM
H69AR cells
  GI50: 53 µM

## COC1OC(CNC(=O)CCCC2C(=O)[O][Pt]3([NH]C4CCCCC4[NH]3)[O]C2=O)C(O)C(O)C1O [(67), [1R, 2R-Cyclohexanediamine-N,N′][{3-(Methyl-α-D-Glucopyranos-6-ylamido)propyl}propanedioato(2-)-O,O′]Platinum (II)]
HT29 cells [1]
  GI50: 234 µM
TUR cells
  GI50: 21 µM
Calu-6 cells
  GI50: 68 µM
ME180 cells
  GI50: 5 µM
H69AR cells
  GI50: 185 µM

## COC1OC(C(=O)NCCC2C(=O)[O][Pt]3([NH]C4CCCCC4[NH]3)[O]C2=O)C(O)C(O)C1O [(78), [1R,2R-Cyclohexanediamine-N,N′][{2-(Methyl-β-D-Glucuron-6-yl-amido)ethyl}propanedioato(2-)-O,O′]Platinum (II)]
HT29 cells [1]
  GI50: 103 µM
TUR cells
  GI50: 15 µM
H69AR cells
  GI50: 76 µM

## O=C(CCC1C(=O)[O][Pt]2([NH]C3CCCCC3[NH]2)[O]C1=O)NC1OC(CO)C(O)C(O)C1O [(45), [1R,2R-Cyclohexanediamine-N,N′][{2-(β-D-Mannopyranos-1-ylamido)ethyl}propanedioato(2-)-O,O′]Platinum (II)]
TUR cells
  GI50: 28 µM
H69AR cells
  GI50: 84 µM

## O=C(CCC1C(=O)[O][Pt]2([NH]C3CCCCC3[NH]2)[O]C1=O)NC1OC(CO)C(O)C(O)C1O [(42), [1R,2R-Cyclohexanediamine-N,N′][{2-(β-D-Galactopyranos-1-ylamido)ethyl}propanedioato(2-)-O,O′]Platinum (II)]
HT29 cells [1]
  GI50: 860 µM
TUR cells
  GI50: 22 µM
Calu-6 cells
  GI50: 131 µM
PC3 cells
  GI50: 45 µM
ME180 cells
  GI50: 4 µM
H69AR cells
  GI50: 188 µM

## O=C1[O][Pt]2([NH]C3CCCCC3[NH]2)[O]C(=O)C1CCNC(=O)C1OC(O)C(O)C(O)C1O [(77), [1R, 2R-Cyclohexanediamine-N,N′][{2-(α,β-D-Galacturon-6-yl-amido)ethyl}propanedioato(2-)-O,O′]Platinum (II)]
TUR cells
  GI50: 38 µM
H69AR cells
  GI50: 38 µM

## O=C(CCCC1C(=O)[O][Pt]2([NH]C3CCCCC3[NH]2)[O]C1=O)NC1C(O)OC(CO)C(O)C1O [(79), [1R,2R-Cyclohexanediamine-N,N′][{3-(α,β-D-Glucopyranos-2-yl-amido)propyl}propanedioato(2-)-O,O′]Platinum (II)]
HT29 cells [1]
  GI50: 124 µM
TUR cells
  GI50: 15 µM
PC3 (Prostate) xenograft
  Percent Tumor Growth Inhibition PC3 (Prostate): 48%
PC3 cells
  GI50: 67 µM
H69AR cells
  GI50: 55 µM

## O=C1[O][Pt]2([NH]C3CCCCC3[NH]2)[O]C(=O)C1CCCC1OC(CO)C(O)C(O)C1O [(83), [1R, 2R-Cyclohexanediamine-N,N′][{3-(α,β-D-Mannopyranos-1-yl)propyl}propanedioato(2-)-O,O′]Platinum (II)]
HT29 cells [1]
  GI50: 117 µM
TUR cells
  GI50: 41 µM
Calu-6 cells
  GI50: 155 µM
PC3 cells
  GI50: 100 µM
ME180 cells
  GI50: 10 µM
H69AR cells
  GI50: 163 µM
